Source: ChEMBL document CHEMBL1201861, “Genomics of Drug Sensitity in Cancer screening data, Wellcome Trust Sanger Institute”

Tests used:
Experiment in all cases: cells
COLO-829 = format: functional, cell-based, Homo sapiens; details: Homo sapiens, COLO-829
Description: SANGER: Inhibition of human COLO-829 cell growth in a cell viability assay.

CaR-1 = format: functional, cell-based, Homo sapiens; details: Homo sapiens, CaR-1
Description: SANGER: Inhibition of human CaR-1 cell growth in a cell viability assay.

Calu-3 = format: functional, cell-based, Homo sapiens; details: Homo sapiens, Calu-3
Description: SANGER: Inhibition of human Calu-3 cell growth in a cell viability assay.

ChaGo-K-1 = format: functional, cell-based; details: Homo sapiens
Description: SANGER: Inhibition of human ChaGo-K-1 cell growth in a cell viability assay.

D-542MG = format: functional, cell-based, Homo sapiens; details: Homo sapiens, D-542MG
Description: SANGER: Inhibition of human D-542MG cell growth in a cell viability assay.

DEL = format: functional, cell-based; details: Homo sapiens
Description: SANGER: Inhibition of human DEL cell growth in a cell viability assay.

DU-4475 = format: functional, cell-based; details: Homo sapiens
Description: SANGER: Inhibition of human DU-4475 cell growth in a cell viability assay.

HCT-116 = format: functional, cell-based, Homo sapiens; details: Homo sapiens, HCT-116
Description: SANGER: Inhibition of human HCT-116 cell growth in a cell viability assay.

HEC-1 = format: functional, cell-based, Homo sapiens; details: Homo sapiens, HEC-1
Description: SANGER: Inhibition of human HEC-1 cell growth in a cell viability assay.

HL-60 = format: functional, cell-based; details: Homo sapiens
Description: SANGER: Inhibition of human HL-60 cell growth in a cell viability assay.

HPAF-II = format: functional, cell-based, Homo sapiens; details: Homo sapiens, HPAF-II
Description: SANGER: Inhibition of human HPAF-II cell growth in a cell viability assay.

HT1197 = format: functional, cell-based, Homo sapiens, HT-1197; details: Homo sapiens, HT1197
Description: SANGER: Inhibition of human HT-1197 cell growth in a cell viability assay.

HT-144 = format: functional, cell-based, Homo sapiens; details: Homo sapiens, HT-144
Description: SANGER: Inhibition of human HT-144 cell growth in a cell viability assay.

JAR = format: functional, cell-based, Homo sapiens; details: Homo sapiens, JAR
Description: SANGER: Inhibition of human JAR cell growth in a cell viability assay.

KARPAS-299 = format: functional, cell-based; details: Homo sapiens
Description: SANGER: Inhibition of human KARPAS-299 cell growth in a cell viability assay.

LNCaP-Clone-FGC = format: functional, cell-based, Homo sapiens; details: Homo sapiens, LNCaP-Clone-FGC
Description: SANGER: Inhibition of human LNCaP-Clone-FGC cell growth in a cell viability assay.

MZ2-MEL = format: functional, cell-based, Homo sapiens; details: Homo sapiens, MZ2-MEL
Description: SANGER: Inhibition of human MZ2-MEL cell growth in a cell viability assay.

NCI-H1563 = format: functional, cell-based, Homo sapiens; details: Homo sapiens, NCI-H1563
Description: SANGER: Inhibition of human NCI-H1563 cell growth in a cell viability assay.

NCI-H1693 = format: functional, cell-based, Homo sapiens; details: Homo sapiens, NCI-H1693
Description: SANGER: Inhibition of human NCI-H1693 cell growth in a cell viability assay.

NCI-H1770 = format: functional, cell-based; details: Homo sapiens
Description: SANGER: Inhibition of human NCI-H1770 cell growth in a cell viability assay.

NCI-H209 = format: functional, cell-based; details: Homo sapiens
Description: SANGER: Inhibition of human NCI-H209 cell growth in a cell viability assay.

NCI-H2228 = format: functional, cell-based, Homo sapiens; details: Homo sapiens, NCI-H2228
Description: SANGER: Inhibition of human NCI-H2228 cell growth in a cell viability assay.

NCI-H23 = format: functional, cell-based, Homo sapiens; details: Homo sapiens, NCI-H23
Description: SANGER: Inhibition of human NCI-H23 cell growth in a cell viability assay.

NCI-H358 = format: functional, cell-based, Homo sapiens; details: Homo sapiens, NCI-H358
Description: SANGER: Inhibition of human NCI-H358 cell growth in a cell viability assay.

NCI-H526 = format: functional, cell-based; details: Homo sapiens
Description: SANGER: Inhibition of human NCI-H526 cell growth in a cell viability assay.

NCI-H650 = format: functional, cell-based, Homo sapiens; details: Homo sapiens, NCI-H650
Description: SANGER: Inhibition of human NCI-H650 cell growth in a cell viability assay.

NCI-H661 = format: functional, cell-based, Homo sapiens; details: Homo sapiens, NCI-H661
Description: SANGER: Inhibition of human NCI-H661 cell growth in a cell viability assay.

SNU1 = format: functional, cell-based; details: Homo sapiens
Description: SANGER: Inhibition of human NCI-SNU-1 cell growth in a cell viability assay.

OVCAR-8 = format: functional, cell-based, Homo sapiens; details: Homo sapiens, OVCAR-8
Description: SANGER: Inhibition of human OVCAR-8 cell growth in a cell viability assay.

PFSK-1 = format: functional, cell-based, Homo sapiens; details: Homo sapiens, PFSK-1
Description: SANGER: Inhibition of human PFSK-1 cell growth in a cell viability assay.

RMG-I = format: functional, cell-based, Homo sapiens; details: Homo sapiens, RMG-I
Description: SANGER: Inhibition of human RMG-I cell growth in a cell viability assay.

RVH-421 = format: functional, cell-based, Homo sapiens; details: Homo sapiens, RVH-421
Description: SANGER: Inhibition of human RVH-421 cell growth in a cell viability assay.

S-117 = format: functional, cell-based, Homo sapiens; details: Homo sapiens, S-117
Description: SANGER: Inhibition of human S-117 cell growth in a cell viability assay.

SK-HEP1 = format: functional, cell-based, Homo sapiens, SK-HEP-1; details: Homo sapiens, SK-HEP1
Description: SANGER: Inhibition of human SK-HEP-1 cell growth in a cell viability assay.

SK-MEL-1 = format: functional, cell-based; details: Homo sapiens
Description: SANGER: Inhibition of human SK-MEL-1 cell growth in a cell viability assay.

SW872 = format: functional, cell-based, Homo sapiens; details: Homo sapiens, SW872
Description: SANGER: Inhibition of human SW872 cell growth in a cell viability assay.

T47D = format: functional, cell-based, Homo sapiens; details: Homo sapiens, T47D
Description: SANGER: Inhibition of human T47D cell growth in a cell viability assay.

A-431 = format: functional, cell-based, Homo sapiens; details: Homo sapiens, A-431
Description: SANGER: Inhibition of human A431 cell growth in a cell viability assay.

ACHN = format: functional, cell-based, Homo sapiens; details: Homo sapiens, ACHN
Description: SANGER: Inhibition of human ACHN cell growth in a cell viability assay.

ACN = format: functional, cell-based, Homo sapiens; details: Homo sapiens, ACN
Description: SANGER: Inhibition of human ACN cell growth in a cell viability assay.

BB65-RCC = format: functional, cell-based, Homo sapiens; details: Homo sapiens, BB65-RCC
Description: SANGER: Inhibition of human BB65-RCC cell growth in a cell viability assay.

BEN = format: functional, cell-based, Homo sapiens; details: Homo sapiens, BEN
Description: SANGER: Inhibition of human BEN cell growth in a cell viability assay.

C3A = format: functional, cell-based, Homo sapiens; details: Homo sapiens, C3A
Description: SANGER: Inhibition of human C3A cell growth in a cell viability assay.

CAL-62 = format: functional, cell-based, Homo sapiens; details: Homo sapiens, CAL-62
Description: SANGER: Inhibition of human CAL-62 cell growth in a cell viability assay.

TE-5 = format: functional, cell-based, Homo sapiens; details: Homo sapiens, TE-5
Description: SANGER: Inhibition of human TE-5 cell growth in a cell viability assay.

TE-8 = format: functional, cell-based, Homo sapiens; details: Homo sapiens, TE-8
Description: SANGER: Inhibition of human TE-8 cell growth in a cell viability assay.

UACC-257 = format: functional, cell-based, Homo sapiens; details: Homo sapiens, UACC-257
Description: SANGER: Inhibition of human UACC-257 cell growth in a cell viability assay.

UMUC3 = format: functional, cell-based, Homo sapiens; details: Homo sapiens, UMUC3
Description: SANGER: Inhibition of human UM-UC-3 cell growth in a cell viability assay.

no-11 = format: functional, cell-based, Homo sapiens; details: Homo sapiens
Description: SANGER: Inhibition of human no-11 cell growth in a cell viability assay.

COLO-684 = format: functional, cell-based; details: Homo sapiens
Description: SANGER: Inhibition of human COLO-684 cell growth in a cell viability assay.

SK-LMS-1 = format: functional, cell-based, Homo sapiens; details: Homo sapiens, SK-LMS-1
Description: SANGER: Inhibition of human SK-LMS-1 cell growth in a cell viability assay.

## CC(=O)O[C@@]12CO[C@@H]1C[C@H](O)[C@@]1(C)C(=O)[C@H](O)C3=C(C)[C@@H](OC(=O)[C@H](O)[C@@H](NC(=O)OC(C)(C)C)c4ccccc4)C[C@@](O)([C@@H](OC(=O)c4ccccc4)[C@H]21)C3(C)C [DOCETAXEL]
COLO-829
  IC50: 0.00725 µM
CaR-1
  IC50: 0.00327 µM
Calu-3
  IC50: > 0.01 µM
ChaGo-K-1
  IC50: 0.00988 µM
D-542MG
  IC50: > 0.01 µM
DEL
  IC50: 0.00301 µM
DU-4475
  IC50: 0.00302 µM
HCT-116
  IC50: 0.00181 µM
HEC-1
  IC50: 0.00303 µM
HL-60
  IC50: 0.00359 µM
HPAF-II
  IC50: 0.00926 µM
HT1197
  IC50: > 0.01 µM
HT-144
  IC50: 0.000157 µM
JAR
  IC50: 0.00437 µM
KARPAS-299
  IC50: > 0.01 µM
LNCaP-Clone-FGC
  IC50: 0.0011 µM
MZ2-MEL
  IC50: 0.00658 µM
NCI-H1563
  IC50: > 0.01 µM
NCI-H1693
  IC50: > 0.01 µM
NCI-H1770
  IC50: 0.00342 µM
NCI-H209
  IC50: 0.00286 µM
NCI-H2228
  IC50: 0.00725 µM
NCI-H23
  IC50: 0.00364 µM
NCI-H358
  IC50: 0.00758 µM
NCI-H526
  IC50: 0.00176 µM
NCI-H650
  IC50: 0.00225 µM
NCI-H661
  IC50: > 0.01 µM
SNU1
  IC50: 0.00197 µM
OVCAR-8
  IC50: 0.00212 µM
PFSK-1
  IC50: 0.000657 µM
RMG-I
  IC50: > 0.01 µM
RVH-421
  IC50: 0.00461 µM
S-117
  IC50: 0.00486 µM
SK-HEP1
  IC50: 0.00234 µM
SK-MEL-1
  IC50: > 0.01 µM
SW872
  IC50: > 0.01 µM
T47D
  IC50: 0.00431 µM
A-431
  IC50: > 0.01 µM
ACHN
  IC50: > 0.01 µM
ACN
  IC50: 0.00644 µM
BB65-RCC
  IC50: 0.00308 µM
BEN
  IC50: > 0.01 µM
C3A
  IC50: > 0.01 µM
CAL-62
  IC50: 0.000185 µM
TE-5
  IC50: 0.00106 µM
TE-8
  IC50: 0.000366 µM
UACC-257
  IC50: > 0.01 µM
UMUC3
  IC50: > 0.01 µM
no-11
  IC50: > 0.01 µM
COLO-684
  IC50: > 0.01 µM

## COc1ccc(C2=N[C@@H](c3ccc(Cl)cc3)[C@@H](c3ccc(Cl)cc3)N2C(=O)N2CCNC(=O)C2)c(OC(C)C)c1 [NUTLIN-3]
COLO-829
  IC50: 7.24 µM
CaR-1
  IC50: > 8 µM
Calu-3
  IC50: > 8 µM
ChaGo-K-1
  IC50: > 8 µM
DEL
  IC50: > 8 µM
DU-4475
  IC50: 2.8 µM
HCT-116
  IC50: 3.3 µM
HEC-1
  IC50: > 8 µM
HL-60
  IC50: > 8 µM
HPAF-II
  IC50: > 8 µM
HT1197
  IC50: > 8 µM
HT-144
  IC50: 2.65 µM
JAR
  IC50: > 8 µM
KARPAS-299
  IC50: > 8 µM
LNCaP-Clone-FGC
  IC50: 2.64 µM
MZ2-MEL
  IC50: 4.5 µM
NCI-H1563
  IC50: > 8 µM
NCI-H1693
  IC50: > 8 µM
NCI-H1770
  IC50: > 8 µM
NCI-H209
  IC50: > 8 µM
NCI-H2228
  IC50: > 8 µM
NCI-H23
  IC50: > 8 µM
NCI-H358
  IC50: 7.45 µM
NCI-H526
  IC50: > 8 µM
NCI-H650
  IC50: > 8 µM
NCI-H661
  IC50: 7.87 µM
SNU1
  IC50: 3.28 µM
OVCAR-8
  IC50: > 8 µM
PFSK-1
  IC50: > 8 µM
RMG-I
  IC50: > 8 µM
RVH-421
  IC50: 6.42 µM
S-117
  IC50: > 8 µM
SK-HEP1
  IC50: 3.74 µM
SK-MEL-1
  IC50: > 8 µM
SW872
  IC50: > 8 µM
T47D
  IC50: > 8 µM
A-431
  IC50: > 8 µM
ACHN
  IC50: > 8 µM
ACN
  IC50: > 8 µM
BB65-RCC
  IC50: > 8 µM
BEN
  IC50: > 8 µM
C3A
  IC50: > 8 µM
CAL-62
  IC50: > 8 µM
TE-5
  IC50: > 8 µM
TE-8
  IC50: > 8 µM
UACC-257
  IC50: > 8 µM
UMUC3
  IC50: > 8 µM
no-11
  IC50: > 8 µM
COLO-684
  IC50: > 8 µM

## O=C(c1cc(Cc2n[nH]c(=O)c3ccccc23)ccc1F)N1CCN(C(=O)C2CC2)CC1 [OLAPARIB]
COLO-829
  IC50: > 5 µM
CaR-1
  IC50: > 5 µM
Calu-3
  IC50: > 5 µM
ChaGo-K-1
  IC50: > 5 µM
DEL
  IC50: > 5 µM
DU-4475
  IC50: > 5 µM
HCT-116
  IC50: > 5 µM
HEC-1
  IC50: > 5 µM
HL-60
  IC50: > 5 µM
HPAF-II
  IC50: > 5 µM
HT1197
  IC50: > 5 µM
HT-144
  IC50: > 5 µM
JAR
  IC50: > 5 µM
KARPAS-299
  IC50: > 5 µM
LNCaP-Clone-FGC
  IC50: > 5 µM
MZ2-MEL
  IC50: > 5 µM
NCI-H1563
  IC50: > 5 µM
NCI-H1693
  IC50: > 5 µM
NCI-H1770
  IC50: > 5 µM
NCI-H209
  IC50: 0.916 µM
NCI-H2228
  IC50: > 5 µM
NCI-H23
  IC50: > 5 µM
NCI-H358
  IC50: > 5 µM
NCI-H526
  IC50: 3.87 µM
NCI-H650
  IC50: > 5 µM
NCI-H661
  IC50: > 5 µM
SNU1
  IC50: > 5 µM
OVCAR-8
  IC50: > 5 µM
PFSK-1
  IC50: > 5 µM
RMG-I
  IC50: > 5 µM
RVH-421
  IC50: > 5 µM
S-117
  IC50: > 5 µM
SK-HEP1
  IC50: > 5 µM
SK-MEL-1
  IC50: > 5 µM
SW872
  IC50: > 5 µM
T47D
  IC50: > 5 µM
A-431
  IC50: > 5 µM
ACHN
  IC50: > 5 µM
ACN
  IC50: > 5 µM
BB65-RCC
  IC50: > 5 µM
BEN
  IC50: > 5 µM
C3A
  IC50: > 5 µM
CAL-62
  IC50: > 5 µM
TE-5
  IC50: > 5 µM
TE-8
  IC50: > 5 µM
UACC-257
  IC50: > 5 µM
UMUC3
  IC50: > 5 µM
no-11
  IC50: > 5 µM
COLO-684
  IC50: 3.52 µM

## Cn1cc(C2=C(c3ccc(Cl)cc3Cl)C(=O)NC2=O)c2ccccc21 [SB-216763]
COLO-829
  IC50: > 10 µM
CaR-1
  IC50: > 10 µM
Calu-3
  IC50: > 10 µM
ChaGo-K-1
  IC50: > 10 µM
D-542MG
  IC50: > 10 µM
DEL
  IC50: > 10 µM
HCT-116
  IC50: > 10 µM
HEC-1
  IC50: > 10 µM
HL-60
  IC50: > 10 µM
HPAF-II
  IC50: > 10 µM
HT1197
  IC50: > 10 µM
HT-144
  IC50: > 10 µM
JAR
  IC50: 1.21 µM
KARPAS-299
  IC50: > 10 µM
LNCaP-Clone-FGC
  IC50: > 10 µM
MZ2-MEL
  IC50: > 10 µM
NCI-H1563
  IC50: > 10 µM
NCI-H1693
  IC50: > 10 µM
NCI-H1770
  IC50: 0.294 µM
NCI-H209
  IC50: > 10 µM
NCI-H2228
  IC50: > 10 µM
NCI-H23
  IC50: > 10 µM
NCI-H358
  IC50: > 10 µM
NCI-H526
  IC50: 0.0489 µM
NCI-H650
  IC50: > 10 µM
NCI-H661
  IC50: > 10 µM
SNU1
  IC50: > 10 µM
OVCAR-8
  IC50: > 10 µM
PFSK-1
  IC50: > 10 µM
RMG-I
  IC50: > 10 µM
RVH-421
  IC50: > 10 µM
S-117
  IC50: > 10 µM
SK-HEP1
  IC50: > 10 µM
SK-LMS-1
  IC50: > 10 µM
SK-MEL-1
  IC50: > 10 µM
SW872
  IC50: > 10 µM
T47D
  IC50: > 10 µM
A-431
  IC50: > 10 µM
ACHN
  IC50: > 10 µM
ACN
  IC50: > 10 µM
BB65-RCC
  IC50: > 10 µM
BEN
  IC50: > 10 µM
C3A
  IC50: > 10 µM
CAL-62
  IC50: > 10 µM
TE-5
  IC50: > 10 µM
TE-8
  IC50: > 10 µM
UACC-257
  IC50: > 10 µM
UMUC3
  IC50: > 10 µM
no-11
  IC50: > 10 µM
COLO-684
  IC50: > 10 µM
